The source of these data is US12708649B2, “Compositions and methods for improving skin health and for the treatment and prevention of diseases, disorders and conditions associated with fungi and other pathogenic microbes” (priority 2020, dated 2026).

Assay [1] concerns DB02473. Briefly: Antibiotic MIC tests. In kind it is cell-based.
Assay [2] relates to DB10033. Briefly: Antibiotic MIC tests. The format is cell-based, Bacillus altitudinis. The conditions noted are these: for MIC: Bacillus altitudinis.
For assay [3], the system named is DB05646. Briefly: Antibiotic MIC tests. The format is cell-based, Alcaligenes faecalis. The following applies: for MIC: Alcaligenes faecalis.
The test system of assay [4] is E. coli ATCC 25922. The following applies: MIC; cited from earlier work.
In assay [5] the test system is DB00376. Briefly: Antibiotic MIC tests. The format is cell-based.
Where [6] appears, read: 24 h, read-out: MIC, DB02473 24 hr.
The mark [7] stands for this setting: 48 h, read-out: MIC, DB02473 48 hr.
[8] abbreviates: 24 h, read-out: MIC, DB10033 24 hr.
[9] abbreviates: 48 h, read-out: MIC, DB10033 48 hr.
[10] abbreviates: 24 h, read-out: MIC, DB05646 24 hr.
The mark [11] stands for this setting: 48 h, read-out: MIC, DB05646 48 hr.
The mark [12] stands for this setting: 24 h, read-out: MIC, DB00376 24 hr.
[13] abbreviates: 48 h, read-out: MIC, DB00376 48 hr.

Converted amounts (≈) assume the structure as drawn. Where two headings read alike, the source gives them in different places.

As to `NCC[C@H](O)C(=O)N[C@@H]1C[C@H](N)[C@@H](O[C@H]2O[C@H](CN)[C@@H](O)[C@H](O)[C@H]2O)[C@H](O)[C@H]1O[C@H]1O[C@H](CO)[C@@H](O)[C@H](N)[C@H]1O` [Amikacin], the minimal inhibitory concentration (MIC) in assay [1] (setting [6]) was determined as 0.25 µg/mL (≈ 0.427 µM); in assay [1] (setting [7]) it was 0.25 µg/mL (≈ 0.427 µM); in assay [2] (setting [8]), 0.5 µg/mL (≈ 0.854 µM); in assay [2] (setting [9]) it was 2 µg/mL (≈ 3.42 µM); in assay [3] (setting [10]) it was 4 µg/mL (≈ 6.83 µM); in assay [3] (setting [11]), 4 µg/mL (≈ 6.83 µM). The MIC in assay [5] (setting [12]) was found to be 0.5 µg/mL (≈ 0.854 µM); in assay [5] (setting [13]), 1 µg/mL (≈ 1.71 µM). In assay [4], the “E. coli ATCC 25922 CLSI QC Range” value was 0.5-4^ μg/mL.

As for Povidone-iodine, in assay [1] (24 hr), the “MIC, DB02473 24 hr” value is over 1024 µg/mL. In addition, the “MIC, DB02473 48 hr” value in assay [1] (48 hr) is over 1024 µg/mL. Further, the “MIC, DB10033 24 hr” value in assay [2] (24 hr) was over 1024 µg/mL. Moreover, the “MIC, DB10033 48 hr” value in assay [2] (48 hr) was over 1024 µg/mL. In assay [3] (24 hr), the “MIC, DB05646 24 hr” value was over 1024 µg/mL. Also, in assay [3] (48 hr), the “MIC, DB05646 48 hr” value was over 1024 µg/mL. Further, the “MIC, DB00376 24 hr” value in assay [5] (24 hr) was over 1024 µg/mL. For the same compound, in assay [5] (48 hr), the “MIC, DB00376 48 hr” value is over 1024 µg/mL.

With `CC[C@H]1OC(=O)[C@H](C)[C@@H](O[C@H]2C[C@@](C)(OC)[C@@H](O)[C@H](C)O2)[C@H](C)[C@@H](O[C@@H]2O[C@H](C)C[C@H](N(C)C)[C@H]2O)[C@](C)(O)C[C@@H](C)CN(C)[C@H](C)[C@@H](O)[C@]1(C)O` [Azithromycin], the minimal inhibitory concentration (MIC) in assay [1] (setting [6]) came out at 0.5 µg/mL (≈ 0.668 µM); in assay [2] (setting [8]) it was 0.2 µg/mL (≈ 0.267 µM); in assay [2] (setting [9]), 0.2 µg/mL (≈ 0.267 µM); in assay [3] (setting [10]), 2 µg/mL (≈ 2.67 µM); in assay [3] (setting [11]), 2 µg/mL (≈ 2.67 µM); in assay [5] (setting [12]) it was 0.25 µg/mL (≈ 0.334 µM). The minimal inhibitory concentration (MIC) in assay [5] (setting [13]) is 1 µg/mL (≈ 1.34 µM).

Take `[H]/N=C(\N/C(=N/[H])NCCCCCCNC(=N)NC(=N)Nc1ccc(Cl)cc1)Nc1ccc(Cl)cc1` [Chlorhexidine]: the MIC in assay [1] (setting [6]) was found to be 1 µg/mL (≈ 1.98 µM); in assay [2] (setting [8]) it was 1 µg/mL (≈ 1.98 µM); in assay [2] (setting [9]), 2 µg/mL (≈ 3.96 µM); in assay [3] (setting [10]) it was 32 µg/mL (≈ 63.3 µM); in assay [3] (setting [11]), 32 µg/mL (≈ 63.3 µM); in assay [5] (setting [12]) it was 0.5 µg/mL (≈ 0.989 µM). Besides, the minimal inhibitory concentration (MIC) in assay [5] (setting [13]) is 1 µg/mL (≈ 1.98 µM).

`C[C@H]1[C@H](NC(=O)/C(=N\OC(C)(C)C(=O)O)c2csc(N)n2)C(=O)N1S(=O)(=O)O` [Aztreonam]: the MIC in assay [1] (setting [6]) is over 64 µg/mL; in assay [1] (setting [7]) it was over 64 µg/mL; in assay [2] (setting [8]), over 64 µg/mL; in assay [2] (setting [9]), over 64 µg/mL; in assay [3] (setting [10]), 32 µg/mL (≈ 73.5 µM); in assay [3] (setting [11]) it was 32 µg/mL (≈ 73.5 µM). The MIC in assay [5] (setting [12]) is 16 µg/mL (≈ 36.7 µM); in assay [5] (setting [13]), over 64 µg/mL. In assay [4], the “E. coli ATCC 25922 CLSI QC Range” value was 0.06 to 0.25 µg/mL.

As for `CN(C)[C@@H]1C(O)=C(C(N)=O)C(=O)[C@@]2(O)C(O)=C3C(=O)c4c(O)cccc4[C@@](C)(O)[C@H]3C[C@@H]12` [Tetracycline], the MIC amounted to 4 µg/mL (≈ 9 µM) in assay [3] (setting [10]), 16 µg/mL (≈ 36 µM) in assay [3] (setting [11]) and 0.0625 µg/mL (≈ 0.141 µM) in assay [5] (setting [12]).

Regarding `C/C(=C\C(=O)OCCCCCCCCC(=O)O)C[C@@H]1OC[C@H](C[C@@H]2O[C@H]2[C@@H](C)[C@H](C)O)[C@@H](O)[C@H]1O` [Mupirocin], the MIC was at most 1 µg/mL in assay [1] (setting [6]); at most 1 µg/mL in assay [1] (setting [7]); 8 µg/mL (≈ 16 µM) in assay [2] (setting [8]); 64 µg/mL (≈ 128 µM) in assay [2] (setting [9]); 64 µg/mL (≈ 128 µM) in assay [3] (setting [10]); 128 µg/mL (≈ 256 µM) in assay [3] (setting [11]). Besides, the MIC in assay [5] (setting [12]) is 2 µg/mL (≈ 3.99 µM); in assay [5] (setting [13]), 16 µg/mL (≈ 32 µM).

Regarding `C[C@@H](O)[C@H]1C(=O)N2C(C(=O)O)=C(S[C@@H]3CN[C@H](C(=O)N(C)C)C3)[C@H](C)[C@H]12` [Meropenem], the MIC in assay [1] (setting [6]) was at most 0.06 µg/mL; in assay [1] (setting [7]), at most 0.06 µg/mL; in assay [2] (setting [8]), at most 0.06 µg/mL; in assay [2] (setting [9]) it was 0.125 µg/mL (≈ 0.326 µM); in assay [3] (setting [10]), at most 0.06 µg/mL; in assay [3] (setting [11]), at most 0.06 µg/mL. The MIC in assay [5] (setting [12]) and in assay [5] (setting [13]) was at most 0.06 µg/mL each time. Besides, the “E. coli ATCC 25922 CLSI QC Range” value in assay [4] was 0.008 to 0.06 µg/mL.

For the compound `CO/N=C(\C(=O)N[C@@H]1C(=O)N2C(C(=O)O)=C(CSc3nc(=O)c(=O)[nH]n3C)CS[C@H]12)c1csc(N)n1` [Ceftriaxone], the MIC in assay [1] (setting [6]) was determined as 4 µg/mL (≈ 7.21 µM); in assay [1] (setting [7]), 16 µg/mL (≈ 28.9 µM); in assay [2] (setting [8]) it was 16 µg/mL (≈ 28.9 µM); in assay [2] (setting [9]), 16 µg/mL (≈ 28.9 µM); in assay [3] (setting [10]) it was 0.25 µg/mL (≈ 0.451 µM); in assay [3] (setting [11]), 0.25 µg/mL (≈ 0.451 µM). Moreover, the minimal inhibitory concentration (MIC) in assay [5] (setting [12]) was 2 µg/mL (≈ 3.61 µM); in assay [5] (setting [13]) it was 4 µg/mL (≈ 7.21 µM). Also, the “E. coli ATCC 25922 CLSI QC Range” value in assay [4] is 0.03 to 0.12 µg/mL.
